Source: patent US10676507B2, “Peptide and composition containing the same for anti-inflammation, anti-fibrosis, wound healing, and anticancer treatment” (GemVax & KAEL CO., LTD., priority 2015, dated 2020)

Columns and labels:
TGF-β = assay: Western blotting of TGF-β signaling inhibition (pSmad2/3, Smad2/3) in HepG2 cell line; format: cell-based, human; details: 10 μM peptide
Procedure: To identify an inhibitory effect of TGF-β, considered as the main cause of fibrosis, of the novel peptides Pep-WH-1 to Pep-WH-12, an experiment for confirming a TGF-β signaling inhibitory action in a HepG2 cell line was carried out as follows.
Reagents and materials used in the present experiment are as follows. Powder-type novel peptides were dissolved in 0.2 μm filtered sterile water, and then stored in the form of aliquots at −70° C., and, when in use, the stored peptides were thawed. A HepG2 cell line (ATCC HB-8065; American Type Culture Collection) was used, and recombinant human TGF-β was dissolved in 4 mM HCl to prepare a 10 μg/mL stock. SB431542 (Sigma) as a positive control was used after being prepared into 10 mM stock.
2×10^6 HepG2 cells (ATCC HB-8065) were seeded in a 60 mm petri dish, and then cultured in a CO2 incubator for 16 hours. Subsequently, the medium was replaced by a serum-free medium (SFM) and further cultured for 24 hours. Thereafter, the medium was replaced with 10 ng/mL of TGF-β1, and the HepG2 cells were treated with each of the novel peptides at each concentration (1 μM and 10 μM) and then cultured for 72 hours. Groups treated with the respective novel peptides were further cultured in a CO2 incubator at 37° C. for 1 hour.
To measure anti-fibrotic activities of the novel peptides, an experiment for measuring a degree of TGF-β signaling inhibition was carried out by western blotting, and a detailed description of the experimental method is as follows.
Cells treated with each peptide were washed twice with PBS, collected in a 1.5 mL EP tube using a cell scraper, and then centrifuged using a centrifugal separator (1,000 rpm, 4° C., 2 minutes) to remove the supernatant, and then 100 μL each was added to RIPA-treated HepG2 cells. The HepG2 cells were incubated on ice for 40 minutes, and then mixed by shaking every 10 minutes (vertex, micro-centrifuge pre-cooled to 4° C.), and each sample was mixed 40 times to 50 times using a 1 mL syringe. Lastly, the resulting mixture was centrifuged at 13,000 rpm for 15 minutes and the obtained supernatant was used.
30 μg of protein was subjected to 8% sodium dodecyl sulfate-polyacrylamide gel electrophoresis (SDS-PAGE) to be transferred to polyvinylidene difluoride (PVDF) membranes (Millipore). The PVDF membranes were blocked with 5% skim milk and incubated with particular primary antibodies. The antibodies used in this experiment are as follows: Smad 2/3 (60, 52 kDa, 5% BSA 1:1000, #3102, Cell signaling), pSmad2/3 (cell signaling #3102), and GAPDH (37 kDa, 5% BSA 1:1000, #2118, Cell signaling). Subsequently, the PVDF membranes were washed with tris-buffered saline containing 0.1% Tween-20 (TBST), and then reacted with an HRP-conjugated anti-rabbit antibody (manufactured by Jackson ImmunoResearch Laboratories, Inc.). Afterwards, ECL detection (Amersham Pharmacia Biotech) was performed thereon, and the acquired images were analyzed using an image analyzer (GE Healthcare, ImageQuant LAS 4000).
To measure TGF-β inhibitory effects, pSmad2/3 and Smad2/3 were used as TGF-β signaling activity markers, and GAPDH was used as a reference group in electrophoresis. The TGF-β signaling activity markers which were expressed at a high concentration as TGF-β was inhibited were used.
(§1) All data are expressed as mean±S.E.M., and statistical processing was performed by an ANOVA test. The SigmaStat statistical program was used and statistical analysis was performed using a Kruskal-Wallis test and a Mann-Whitney U-test. In addition, comparison between the groups was performed using a Tukey test and a p value less than 0.05 was determined as statistically significant.

TNF-α [1] = assay: ELISA of TNF-α amounts in LPS-induced THP-1 cells; format: cell-based, human; details: all the concentrations (1 μM, 5 μM, 10 μM); FIG. 2
Procedure: (§2) An experiment was carried out using THP-1 cells (American Type Culture Collection (ATCC), Manassas, Va., USA), which is a human acute monocytic leukemia cell line. THP-1 cells were suspended in RPMI 1640 medium to a concentration of 1×10^5 cells per well in a 96 well plate and incubated for 24 hours. At this time, the THP-1 cells were treated with phorbol 12-myristate 13-acetate (PMA) (Sigma) to differentiate into macrophages.
The ELISA test method was as follows. THP-1, which is a monocyte cell line distributed from ATCC, was sub-cultured and prepared in the P3 stage, and the cell line was distributed into wells of a well plate and treated with PMA to differentiate into macrophages. The differentiated cells were treated with LPS to induce an inflammatory reaction (to induce the production of TNF-alpha), and were treated with each of the novel peptides at each concentration (1 μM, 5 μM, and 10 μM), and the amounts of TNF-α were measured by ELISA. Relative values for a non-inflammation group and a complete inflammation group were calculated, and estrogen (E2) was set as a positive control and a non-treated cell line not treated with the novel peptides was set as a general control to perform comparative analysis. E2 is known as a steroid that inhibits the production of TNF-α in THP-1.
as §1, with “mean±standard error of the mean (S.E.M.),” for “mean±S.E.M.,”, “A” for “The”

wound-induced SD rats = assay: Wound area in full-thickness excision wound-induced animal model; format: in vivo, Sprague-Dawley (SD) rats; details: 50 μL of 100 μg/mL applied every two days
Procedure: To confirm wound healing effects of the novel peptides Pep-WH-8, Pep-WH-9, Pep-WH-11, and Pep-WH-1, a wound-induced animal model was treated with each of the novel peptides, and then an experiment to confirm an effect of each peptide in producing collagen needed for a decrease in wound size and in a wound healing process was carried out as follows.
Sprague-Dawley (SD) rats were selected because mice have thin skins and it is difficult to uniformly induce a wound in mice. To exclude effects due to hormonal changes, male SD rats were selected and 6-week-old SD rats were purchased and acclimated for about 1 week. However, to more precisely obtain experimental results, an experiment was carried out after the 6-week-old SD rats became 11 weeks old. Since experimental animals are sensitive to olfactory responses and may attack other individual, individuals were separated from each other after wounds were formed, such as 1 rat for each cage, and observed.
The following method was used to form full-thickness excision in the prepared experimental animals. To induce anesthesia, a mixture of 10 mg/kg (body weight) of xylazine-HCl and 100 mg/kg (body weight) of ketamine HCl were intraperitoneally injected into the experimental animals or the experimental animals were administered the mixture via a respiratory anesthesia system. After the induction of anesthesia, hairs on the back of the experimental animal in a prone position were shaved cleanly, the back was disinfected with betadine, and then one circular full-thickness excision was made on a site apart from the highest portion of the back to each of left and right sides by a distance of about 1 cm, using a 16 mm punch. Separate dressing was not performed on the wound sites.
The full-thickness excision-induced animal model was divided into the following groups and a drug was applied on each group immediately after the formation of the excision and every two days. For the application method, a material was adjusted to a concentration of 1 mg/mL, and then, immediately before the experiment, the material was diluted 10 times to a concentration of 100 μg/mL. 50 μL of the material was applied dropwise on each excision.
[…] When the wounds were completely healed, the wound healing date was recorded. Generally, on about day 9, individuals with the wound sizes decreased to 5% of the initial wounds began to appear. The wound sites were photographed with a ruler, and then the acquired images were analyzed using the Image J program (NIH, USA) to calculate wound areas, and the wound areas were compared with each other.

TNF-α [2] = assay: RT-qPCR of TNF-α mRNA expression in LPS-treated THP-1 cells; format: cell-based, human; details: 1 μM, the lowest treatment concentration; FIG. 1
Procedure: as §2
The RT-qPCR test method was as follows. THP-1 cells were plated on a 6-well plate at a concentration of 2×10^6 cells/well and treated with 100 ng/mL of PMA for 24 hours to differentiate into macrophages. The media were removed and the differentiated THP-1 cells were washed twice with serum-free media (SFM), and then each novel peptide was treated with 10 ng/mL of LPS at each concentration of 1 μM, 5 μM, and 10 μM for 6 hours. RNA was extracted using RNeasy® Plus Mini Kit (Qiagen), and the extracted RNA was quantified and then cDNA synthesis was performed using a Reverse Transcription System (Promega). […]
All data are expressed as mean±standard error of the mean (S.E.M.), and statistical processing was performed by an ANOVA test. […] In addition, comparison between the groups was performed using a Tukey test and a p value less than 0.05 was determined as statistically significant.

[3] = day 3 after full-thickness excision
[4] = day 1 after full-thickness excision

Row | Substance | TGF-β inhibitory activity compared to positive control 10 μM SB431542 (TGF-β) | inflammation-inducing activity (TNF-α amount) compared to E2 positive control (TNF-α [1]) | also measured
1 | ALSTRLRG (Pep-WH-5 peptide) | higher TGF-β inhibitory activity |  | 
2 | ALTSKLRF (Pep-WH-12 peptide) | higher TGF-β inhibitory activity | lower inflammation-inducing activity | wound size compared to control (wound-induced SD rats; [3]): smaller wound size
3 | ALTSRVRG (Pep-WH-8 peptide) |  | lower inflammation-inducing activity | wound size compared to control (wound-induced SD rats; [3]): smaller wound size
4 | ALTSRVRF (Pep-WH-9 peptide) |  | lower inflammation-inducing activity | wound size compared to control (wound-induced SD rats; [4]): smaller wound size
5 | ALTSRVRA (Pep-WH-7 peptide) | higher TGF-β inhibitory activity |  | 
6 | ALSSRLRF (Pep-WH-3 peptide) | higher TGF-β inhibitory activity |  | 
7 | ALSTRLRF (Pep-WH-6 peptide) | higher TGF-β inhibitory activity |  | 
8 | ALSTRLRA (Pep-WH-4 peptide) | higher TGF-β inhibitory activity |  | 
9 | Pep-WH-11: novel peptide prepared by the same method as Pep-WH-1; sequence not printed in Table 2 (ALSTRLRG; Pep-WH-11 peptide) |  | lower inflammation-inducing activity | anti-inflammatory activity (TNF-α mRNA inhibition), comparison among peptides (TNF-α [2]): highest anti-inflammatory activity; wound size compared to control (wound-induced SD rats; [4]): smaller wound size
